Target: T1, Neuropeptide Y receptor type 5 (Homo sapiens, UniProt Q15761)
T1 sequence (Q15761 whole entry): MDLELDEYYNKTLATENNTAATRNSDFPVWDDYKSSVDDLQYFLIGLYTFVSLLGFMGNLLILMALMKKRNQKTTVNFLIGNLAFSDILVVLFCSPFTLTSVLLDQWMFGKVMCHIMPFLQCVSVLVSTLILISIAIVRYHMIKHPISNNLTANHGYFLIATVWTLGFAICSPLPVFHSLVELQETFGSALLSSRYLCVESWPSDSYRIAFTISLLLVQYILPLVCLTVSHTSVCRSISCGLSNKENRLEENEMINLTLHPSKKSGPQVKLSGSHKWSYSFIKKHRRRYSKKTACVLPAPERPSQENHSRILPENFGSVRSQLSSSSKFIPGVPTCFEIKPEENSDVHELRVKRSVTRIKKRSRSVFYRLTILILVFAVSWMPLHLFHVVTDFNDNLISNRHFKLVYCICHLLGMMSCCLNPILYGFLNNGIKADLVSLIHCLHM
Assay: Displacement of [125I]PYY from human recombinant neuropeptide Y5 receptor expressed in thymidine kinase deficient […] cells

Ki: > 1000 nM
Compound: COc1cccc2c1C(C1C(=O)CC(C)(C)CC1=O)C1=C(CC(C)(C)CC1=O)O2 (stereo unspecified) [9-(2-Hydroxy-4,4-dimethyl-6-oxocyclohexyl)-8-methoxy-3,3-dimethyl-2,3,4,9-tetrahydro-1H-xanthen-1-one]

Source: BindingDB's records for doi:10.1021/jm8003587 (Tsukuba Research Institute, 2008)
